Legend:
[1] = Determination of the HFP-HFPO partition coefficient (alpha) in an organic liquid: HFP/HFPO gas mixture passed through the liquid, dissolved gases measured by gas chromatography; format: physicochemical; conditions: HFP-HFPO partition coefficient of the organic liquid, atmospheric pressure
Procedure: A simple method of determining this preference (using HFP over HFPO as an example of other olefins and their epoxides covered by this invention) is to determine the partition coefficient for the system HFPO-HFP-organic liquid. Determination of the partition coefficient (alpha) is carried out by passing a mixture of HFP and HFPO gas through the organic liquid at atmospheric pressure while agitating vigorously and maintaining a constant temperature. The gas is passed through the liquid long enough to ensure that the liquid is completely saturated with the gases and to let the gas phase composition equilibrate to the feed composition. The organic liquid phase is then sampled and gas chromatography is used to determine the amount of the gaseous components which had been dissolved in the liquid phase. The partition coefficient, alpha, is then calculated by the following equation: [formula]
Using this method, partition coefficients were determined for a number of organic liquids at -15°C and 0°C, with the results shown below: […]

[2] = Miscibility of toluene with HFP and HFPO; format: physicochemical; conditions: in toluene; miscibility sharply affected by temperature
Description: Certain organic liquids show more affinity for perfluoroolefins than for their epoxides and they are desired for use in this invention. […] With mixtures of HFP and HFPO as would exist in a continuous back-mixed reactor, immiscibility exists at higher temperatures. It is believed that organic liquids which are substantially halogenated will not form two phases with HFP or HFPO. […] Therefore, a hydrogen-containing organic liquid is used.

| Compound | Alpha at 0°C [1] | Alpha at -15°C [1] | concentration at which toluene becomes immiscible [2] |
| --- | --- | --- | --- |
| FC(F)(F)C(F)(F)C(F)(F)C(F)(F)C1(F)OC(F)(F)C(F)(F)C1(F)F (centres unmarked) [FC-75, Perfluoro(butyl tetrahydrofurane)] | 1.0 | 1.0 |  |
| FC(F)=C(F)C(F)(F)F [HFP, hexafluoropropylene] |  |  | 20-40 wt % |
| FC(F)(F)C1(F)OC1(F)F (centres unmarked) [HFPO, hexafluoropropylene epoxide] |  |  | 3-6 wt % |
| COc1ccccc1 [anisole] | 2.5 | 2.4 |  |
| Clc1ccccc1 [chlorobenzene] | 2.1 | 1.9 |  |
| Cc1cc(C)cc(C)c1 [mesitylene] | 2.2 | 2.3 |  |
| CCCCCCCCCC [n-decane] | 1.3 | 1.6 |  |
| dichlorobenzene | 2.1 | 2.0 |  |

— patent publication EP0414569A2, “Three-liquid-phase epoxidation of perfluoroolefins” (E.I. DU PONT DE NEMOURS AND COMPANY, priority 1989, dated 1991)
